Laboratory results reported in ChEMBL document CHEMBL1135261, “Antitumor agents. Part 3: synthesis and cytotoxicity of new trans-stilbene benzenesulfonamide derivatives” (2002).

How the values were obtained:
Settings in all cases: Homo sapiens
SR = assay: Tested for the cytotoxicity against the Leukemia cell line SR, growth inhibition by 50% is reported; type: functional
IGROV-1 = assay: Tested for the cytotoxicity against the Ovarian cancer cell line IGROV1, growth inhibition by 50% is reported; type: functional
HT-29 = assay: Tested for the cytotoxicity against the colon cancer cell line HT29, growth inhibition by 50% is reported; type: functional
RPMI-8226 = assay: Tested for the cytotoxicity against the Leukemia cell line RPMI8226, growth inhibition by 50% is reported; type: functional
MDA-MB-435 = assay: Tested for the cytotoxicity against the Breast cancer cell line MDAMB435, growth inhibition by 50% is reported; type: functional
CAKI-1 = assay: Tested for the cytotoxicity against the Renal cancer cell line CAKI-1, growth inhibition by 50% is reported; type: functional
MOLT-4 = assay: Tested for the cytotoxicity against the Leukemia cell line MOLT-4, growth inhibition by 50% is reported; type: functional
KM12 = assay: Tested for the cytotoxicity against the colon cancer cell line KM-12, growth inhibition by 50% is reported; type: functional
ACHN = assay: Tested for the cytotoxicity against the Renal cancer cell line ACHN, growth inhibition by 50% is reported; type: functional
A549 = assay: Tested for the cytotoxicity against the Non-small cell lung cancer cell line A-549, growth inhibition by 50% is reported; type: functional
HOP-92 = assay: Tested for the cytotoxicity against the Non-small cell lung cancer cell line HOP-92, growth inhibition by 50% is reported; type: functional
U-251 = assay: Tested for the cytotoxicity against the CNS cancer cell line U251,growth inhibition by 50% is reported; type: functional
SF-268 = assay: Tested for the cytotoxicity against the CNS cancer cell line SF-268, growth inhibition by 50% is reported; type: functional
LOX IMVI = assay: Tested for the cytotoxicity against the Melanoma cell line LOXIMVI, growth inhibition by 50% is reported; type: functional
BT-549 = assay: Tested for the cytotoxicity against the Breast cancer cell line BT-549, growth inhibition by 50% is reported; type: functional
HCT-15 = assay: Tested for the cytotoxicity against the colon cancer cell line HCT15, growth inhibition by 50% is reported; type: functional
UACC-62 = assay: Tested for the cytotoxicity against the Melanoma cell line UACC-62, growth inhibition by 50% is reported; type: functional
NCI-H226 = assay: Tested for the cytotoxicity against the Non-small cell lung cancer cell line NCI-H226, growth inhibition by 50% is reported; type: functional
Hs-578T = assay: Tested for the cytotoxicity against the Breast cancer cell line HS-578T, growth inhibition by 50% is reported; type: functional
K562 = assay: Tested for the cytotoxicity against the Leukemia cell line K-562, growth inhibition by 50% is reported; type: functional
NCI-H23 = assay: Tested for the cytotoxicity against the Non-small cell lung cancer cell line NCI-H23, growth inhibition by 50% is reported
OVCAR-4 = assay: Tested for the cytotoxicity against the Ovarian cancer cell line OVCAR-4, growth inhibition by 50% is reported; type: functional
OVCAR-8 = assay: Tested for the cytotoxicity against the Ovarian cancer cell line OVCAR-8, growth inhibition by 50% is reported; type: functional
HL-60 = assay: Tested for the cytotoxicity against the Leukemia cell line HL60, growth inhibition by 50% is reported; type: functional
CCRF-CEM = assay: Tested for the cytotoxicity against the Leukemia cell line CCRF-CEM, growth inhibition by 50% is reported; type: functional
SF-539 = assay: Tested for the cytotoxicity against the CNS cancer cell line SF-539, growth inhibition by 50% is reported; type: functional
NCI-H522 = assay: Tested for the cytotoxicity against the Non-small cell lung cancer cell line NCI-H522 growth inhibition by 50% is reported; type: functional

COc1cc(/C=C/c2ccc(S(N)(=O)=O)cc2)cc(OC)c1
GI50 (SR): 19.7 µM | GI50 (IGROV-1): 23.1 µM | GI50 (HT-29): 16.2 µM | GI50 (RPMI-8226): 14.3 µM | GI50 (MDA-MB-435): 18.7 µM | GI50 (CAKI-1): 19 µM | GI50 (MOLT-4): 18.6 µM | GI50 (KM12): 20.8 µM | GI50 (ACHN): 23.5 µM | GI50 (A549): 20.7 µM | GI50 (HOP-92): 15 µM | GI50 (U-251): 17.1 µM | GI50 (SF-268): 28.3 µM | GI50 (LOX IMVI): 18.2 µM | GI50 (BT-549): 10.7 µM | GI50 (HCT-15): 17.4 µM | GI50 (UACC-62): 15.4 µM | GI50 (NCI-H226): 12.3 µM | GI50 (Hs-578T): 20.1 µM | GI50 (K562): 28.7 µM | GI50 (NCI-H23): 22.5 µM | GI50 (OVCAR-4): 21.2 µM | GI50 (OVCAR-8): 37.9 µM | GI50 (HL-60): 18.6 µM | GI50 (CCRF-CEM): 19.9 µM | GI50 (SF-539): 18.8 µM

COc1cccc(/C=C/c2ccc(S(N)(=O)=O)cc2)c1
GI50 (SR): 5.21 µM | GI50 (IGROV-1): 2.5 µM | GI50 (HT-29): 0.554 µM | GI50 (RPMI-8226): 3.81 µM | GI50 (MDA-MB-435): 17.4 µM | GI50 (CAKI-1): 14.7 µM | GI50 (MOLT-4): 26.8 µM | GI50 (KM12): 12.2 µM | GI50 (ACHN): 7.12 µM | GI50 (A549): 11 µM | GI50 (HOP-92): 3.29 µM | GI50 (U-251): 5.54 µM | GI50 (SF-268): 17.1 µM | GI50 (LOX IMVI): 30.7 µM | GI50 (BT-549): 6.38 µM | GI50 (HCT-15): 3.6 µM | GI50 (UACC-62): 14 µM | GI50 (NCI-H226): 2.91 µM | GI50 (Hs-578T): 25.5 µM | GI50 (K562): 20.6 µM | GI50 (NCI-H23): 21 µM | GI50 (OVCAR-4): 25 µM | GI50 (OVCAR-8): 31.6 µM | GI50 (HL-60): 10.4 µM | GI50 (CCRF-CEM): 13.6 µM | GI50 (SF-539): 16.8 µM

NS(=O)(=O)c1ccc(/C=C/c2ccc(O)c(O)c2)cc1
GI50 (SR): 12.7 µM | GI50 (IGROV-1): 4.49 µM | GI50 (HT-29): 35.4 µM | GI50 (RPMI-8226): 9.16 µM | GI50 (MDA-MB-435): 16.8 µM | GI50 (CAKI-1): 29.1 µM | GI50 (MOLT-4): 12.8 µM | GI50 (KM12): 18.2 µM | GI50 (ACHN): 20.4 µM | GI50 (A549): 22.3 µM | GI50 (HOP-92): 15.8 µM | GI50 (U-251): 16.3 µM | GI50 (SF-268): 18.2 µM | GI50 (LOX IMVI): 29.9 µM | GI50 (BT-549): 4.13 µM | GI50 (HCT-15): 13.9 µM | GI50 (UACC-62): 23.3 µM | GI50 (NCI-H226): 14 µM | GI50 (Hs-578T): 25.6 µM | GI50 (K562): 35.3 µM | GI50 (NCI-H522): 2.25 µM | GI50 (NCI-H23): 25.9 µM | GI50 (OVCAR-4): 11.6 µM | GI50 (OVCAR-8): 16.7 µM | GI50 (HL-60): 16.3 µM | GI50 (CCRF-CEM): 4.79 µM | GI50 (SF-539): 14.2 µM

NS(=O)(=O)c1ccc(/C=C/c2cccc(O)c2)cc1
GI50 (SR): 17.8 µM | GI50 (IGROV-1): 30.2 µM | GI50 (HT-29): 43.3 µM | GI50 (RPMI-8226): 18.9 µM | GI50 (MDA-MB-435): 25.8 µM | GI50 (CAKI-1): 50.2 µM | GI50 (MOLT-4): 20 µM | GI50 (KM12): 35.4 µM | GI50 (ACHN): 25.8 µM | GI50 (A549): 19.8 µM | GI50 (HOP-92): 17.4 µM | GI50 (U-251): 21.1 µM | GI50 (SF-268): 65.6 µM | GI50 (LOX IMVI): 43 µM | GI50 (HCT-15): 22.8 µM | GI50 (UACC-62): 18.6 µM | GI50 (NCI-H226): 25.8 µM | GI50 (Hs-578T): 61 µM | GI50 (K562): 43.4 µM | GI50 (NCI-H522): 12.2 µM | GI50 (NCI-H23): 46.1 µM | GI50 (OVCAR-4): 27.8 µM | GI50 (OVCAR-8): 25.2 µM | GI50 (HL-60): 41.4 µM | GI50 (CCRF-CEM): 16.1 µM | GI50 (SF-539): 36.7 µM

NS(=O)(=O)c1ccc(/C=C/c2ccc(F)cc2)cc1
GI50 (SR): 10.5 µM | GI50 (IGROV-1): 20.9 µM | GI50 (HT-29): 29.4 µM | GI50 (RPMI-8226): 42.3 µM | GI50 (MDA-MB-435): 27 µM | GI50 (CAKI-1): 36.3 µM | GI50 (MOLT-4): 12.9 µM | GI50 (KM12): 16.3 µM | GI50 (ACHN): 2.97 µM | GI50 (A549): 8.93 µM | GI50 (HOP-92): 33.2 µM | GI50 (U-251): 7.93 µM | GI50 (SF-268): 20.5 µM | GI50 (LOX IMVI): 26.7 µM | GI50 (BT-549): 0.205 µM | GI50 (HCT-15): 9.98 µM | GI50 (NCI-H226): 7.97 µM | GI50 (Hs-578T): 23.7 µM | GI50 (K562): 14.9 µM | GI50 (NCI-H522): 4.81 µM | GI50 (NCI-H23): 45.1 µM | GI50 (OVCAR-4): 34.4 µM | GI50 (OVCAR-8): 15.2 µM | GI50 (HL-60): 37.3 µM | GI50 (CCRF-CEM): 62 µM | GI50 (SF-539): 29.1 µM

NS(=O)(=O)c1ccc(/C=C/c2ccc(O)cc2)cc1
GI50 (SR): 4.68 µM | GI50 (IGROV-1): 20.3 µM | GI50 (HT-29): 17.8 µM | GI50 (RPMI-8226): 7.09 µM | GI50 (MDA-MB-435): 20.3 µM | GI50 (CAKI-1): 5.59 µM | GI50 (MOLT-4): 22.6 µM | GI50 (KM12): 11.1 µM | GI50 (ACHN): 2.28 µM | GI50 (A549): 13.9 µM | GI50 (HOP-92): 31.5 µM | GI50 (U-251): 15 µM | GI50 (SF-268): 31.5 µM | GI50 (LOX IMVI): 19.1 µM | GI50 (HCT-15): 24.6 µM | GI50 (UACC-62): 3.4 µM | GI50 (NCI-H226): 11.1 µM | GI50 (Hs-578T): 28.9 µM | GI50 (K562): 24.9 µM | GI50 (NCI-H522): 13.8 µM | GI50 (NCI-H23): 16.9 µM | GI50 (OVCAR-4): 36.9 µM | GI50 (OVCAR-8): 4.81 µM | GI50 (HL-60): 4.35 µM | GI50 (CCRF-CEM): 4.5 µM | GI50 (SF-539): 7.4 µM

CN(C)c1ccc(/C=C/c2ccc(S(N)(=O)=O)cc2)cc1
GI50 (SR): 8.58 µM | GI50 (IGROV-1): 13.4 µM | GI50 (HT-29): 30.8 µM | GI50 (RPMI-8226): 11.6 µM | GI50 (MDA-MB-435): 7.63 µM | GI50 (CAKI-1): 50.3 µM | GI50 (MOLT-4): > 100 µM | GI50 (KM12): 8.28 µM | GI50 (ACHN): 13.6 µM | GI50 (A549): 10.1 µM | GI50 (HOP-92): 16.6 µM | GI50 (U-251): 11.2 µM | GI50 (SF-268): 7.16 µM | GI50 (LOX IMVI): 18.7 µM | GI50 (BT-549): 2.14 µM | GI50 (HCT-15): 17.1 µM | GI50 (NCI-H226): 12.1 µM | GI50 (Hs-578T): 3.03 µM | GI50 (K562): > 100 µM | GI50 (NCI-H522): 6.88 µM | GI50 (NCI-H23): 14.2 µM | GI50 (OVCAR-4): 3.34 µM | GI50 (OVCAR-8): 4.95 µM | GI50 (HL-60): > 100 µM | GI50 (CCRF-CEM): 46 µM | GI50 (SF-539): 11.7 µM
